# Experimental data from patent US20260042731A1, “(2,4-DICHLOROPHENOXY)ACETIC ACID ANALOGS” (CORTEVA AGRISCIENCE LLC, priority 2022, published 2026).
# Like-named read-outs stand apart in the source and are kept apart here.
# How the values were obtained:
# [1] = tested on: glyphosate resistant Conyza canadensis (L.) (ERICA), horseweed; assay: Postemergence herbicide evaluation, growth of Conyza canadensis (ERICA); assay type: in vivo; details: Erigeron canadensis, post-emergence, percent reduction in plant size relative to untreated control, read-out: Ave. ERICA; for pest or weed control at 280 g/ha: 280 g ae/ha; for pest or weed control at 560 g/ha: 560 g ae/ha
# [2] = tested on: Abutilon theophrasti (ABUTH), velvetleaf; assay: Postemergence herbicide evaluation, growth of Abutilon theophrasti (ABUTH); assay type: in vivo; details: Abutilon theophrasti, post-emergence, percent reduction in plant size relative to untreated control, read-out: AVE. ABUTH; for pest or weed control at 280 g/ha: 280 g ae/ha; for pest or weed control at 560 g/ha: 560 g ae/ha
# [3] = tested on: weeds (ABUTH, AMATA, AMBEL, CHEAL, ERICA); assay: Postemergence herbicide evaluation, overall average % weed control across ABUTH, AMATA, AMBEL, CHEAL, ERICA; assay type: in vivo; details: post-emergence, average over the five weeds, read-out: Overall Ave % Weed Control; for pest or weed control at 280 g/ha: 280 g ae/ha; for pest or weed control at 560 g/ha: 560 g ae/ha
# Velvetleaf (ABUTH) = assay: Greenhouse post-emergence mixture trials, percent visual control; assay type: in vivo; details: ABUTH, 21 DAA; for pest or weed control at 560 g/ha / pest or weed control at 1120 g/ha: Abutilon theophrasti, post-emergence, 504 h; for pest or weed control at 560 g/ha: compound 560 g ae/ha; for pest or weed control at 1120 g/ha: compound 1120 g ae/ha, read-out: % Control
# [4] = tested on: Common Lambsquarters (CHEAL); assay: as above; assay type: in vivo; details: CHEAL, 21 DAA; for pest or weed control at 560 g/ha / pest or weed control at 1120 g/ha: Chenopodium album, post-emergence, 504 h; for pest or weed control at 1120 g/ha: read-out: % Control
# [5] = tested on: Ambrosia artemisiifolia (AMBEL), common ragweed; assay: Postemergence herbicide evaluation, growth of Ambrosia artemisiifolia (AMBEL); assay type: in vivo; details: Ambrosia artemisiifolia, post-emergence, percent reduction in plant size relative to untreated control, read-out: AVE. AMBEL; for pest or weed control at 280 g/ha: 280 g ae/ha; for pest or weed control at 560 g/ha: 560 g ae/ha
# [6] = tested on: Amaranthus rudis (AMATA), tall water hemp; assay: Postemergence herbicide evaluation, growth of Amaranthus rudis (AMATA); assay type: in vivo; details: Amaranthus tuberculatus, post-emergence, percent reduction in plant size relative to untreated control, read-out: Ave. AMATA; for pest or weed control at 280 g/ha: 280 g ae/ha; for pest or weed control at 560 g/ha: 560 g ae/ha
# [7] = Volatility of compounds measured by thermogravimetric analysis (TGA); assay type: physicochemical
# Corn (ZEAMX) = assay: Greenhouse post-emergence mixture trials, percent visual control; assay type: in vivo; details: ZEAMX, 21 DAA; for plant injury at 560 g/ha / plant injury at 1120 g/ha: Zea mays, post-emergence, 504 h; for plant injury at 560 g/ha: compound 560 g ae/ha
# [8] = tested on: Chenopodium album (CHEAL), common lambsquarters; assay: Postemergence herbicide evaluation, growth of Chenopodium album (CHEAL); assay type: in vivo; details: Chenopodium album, post-emergence, percent reduction in plant size relative to untreated control, read-out: Ave. CHEAL; for pest or weed control at 280 g/ha: 280 g ae/ha; for pest or weed control at 560 g/ha: 560 g ae/ha
# [9] = no mixing partner, Trial Bridge 3
# [10] = Trial Bridge 1, mixing partner none
# [11] = Trial Bridge 2, no mixing partner
# [12] = Trial Bridge 1, compound 560 g ae/ha + Arylex 5 g ai or ae/ha
# [13] = Trial Bridge 1, compound 560 g ae/ha + Mesotrione 150 g ai or ae/ha
# [14] = Trial Bridge 1, compound 1120 g ae/ha + Glufosinate 600 g ai or ae/ha
# [15] = Trial Bridge 1, compound 1120 g ae/ha + Mesotrione 150 g ai or ae/ha
# [16] = Trial Bridge 2, compound 560 g ae/ha + Saflufenacil 25 g ai or ae/ha
# [17] = Trial Bridge 2, compound 560 g ae/ha + Saflufenacil 75 g ai or ae/ha
# [18] = Trial Bridge 2, compound 560 g ae/ha + Trifludimoxazin 50 g ai or ae/ha
# [19] = Trial Bridge 2, compound 1120 g ae/ha + Saflufenacil 25 g ai or ae/ha
# [20] = Trial Bridge 2, compound 1120 g ae/ha + Saflufenacil 75 g ai or ae/ha
# [21] = Trial Bridge 2, compound 1120 g ae/ha + Trifludimoxazin 12.5 g ai or ae/ha
# [22] = Trial Bridge 2, compound 1120 g ae/ha + Trifludimoxazin 50 g ai or ae/ha
# [23] = Trial Bridge 1, compound 560 g ae/ha, no mixing partner
# [24] = Trial Bridge 1, compound 1120 g ae/ha, no mixing partner
# [25] = compound 1120 g ae/ha, no mixing partner, Trial Bridge 3
compound,measurement,setting,value
"O=C(COc1ccc(Cl)cc1Cl)NOCc1ccccc1 [Compound D8, N-(Benzyloxy)-2-(2,4-dichlorophenoxy)acetamide]",pest or weed control at 280 g/ha,"[1]; 168 h, 7 DAA",68%
same,pest or weed control at 560 g/ha,"[1]; 168 h, 7 DAA",70%
same,pest or weed control at 280 g/ha,"[1]; 336 h, 14 DAA",88%
same,pest or weed control at 560 g/ha,"[1]; 336 h, 14 DAA",85%
same,pest or weed control at 280 g/ha,"[1]; 504 h, 21 DAA",95%
same,pest or weed control at 560 g/ha,"[1]; 504 h, 21 DAA",92%
same,pest or weed control at 280 g/ha,"[2]; 168 h, 7 DAA",83%
same,pest or weed control at 560 g/ha,"[2]; 168 h, 7 DAA",83%
same,pest or weed control at 280 g/ha,"[2]; 336 h, 14 DAA",93%
same,pest or weed control at 560 g/ha,"[2]; 336 h, 14 DAA",91%
same,pest or weed control at 280 g/ha,"[2]; 504 h, 21 DAA",99%
same,pest or weed control at 560 g/ha,"[2]; 504 h, 21 DAA",96%
same,pest or weed control at 280 g/ha,"[3]; 168 h, 7 DAA",70%
same,pest or weed control at 560 g/ha,"[3]; 168 h, 7 DAA",73%
same,pest or weed control at 280 g/ha,"[3]; 336 h, 14 DAA",85%
same,pest or weed control at 560 g/ha,"[3]; 336 h, 14 DAA",88%
same,pest or weed control at 280 g/ha,"[3]; 504 h, 21 DAA",88%
same,pest or weed control at 560 g/ha,"[3]; 504 h, 21 DAA",93%
same,% Control,"Velvetleaf (ABUTH); compound 560 g ae/ha + Sulfentrazone 130 g ai/ha, Trial Bridge 3",100%
same,% Control,"Velvetleaf (ABUTH); compound 1120 g ae/ha + Sulfentrazone 130 g ai/ha, Trial Bridge 3",100%
same,% Control,"Velvetleaf (ABUTH); compound 1120 g ae/ha + Sulfentrazone 347 g ai/ha, Trial Bridge 3",100%
same,pest or weed control at 560 g/ha,Velvetleaf (ABUTH); [9],90%
same,pest or weed control at 1120 g/ha,Velvetleaf (ABUTH); [9],95%
same,pest or weed control at 560 g/ha,Velvetleaf (ABUTH); [10],100%
same,pest or weed control at 1120 g/ha,Velvetleaf (ABUTH); [10],100%
same,pest or weed control at 560 g/ha,Velvetleaf (ABUTH); [11],100%
same,pest or weed control at 1120 g/ha,Velvetleaf (ABUTH); [11],100%
same,% Control,Velvetleaf (ABUTH); [12],100%
same,% Control,"Velvetleaf (ABUTH); Trial Bridge 1, compound 560 g ae/ha + Glyphosate 1120 g ai or ae/ha",100%
same,% Control,Velvetleaf (ABUTH); [13],100%
same,% Control,"Velvetleaf (ABUTH); Trial Bridge 1, compound 560 g ae/ha + diclosulam 35 g ai or ae/ha",100%
same,% Control,"Velvetleaf (ABUTH); Trial Bridge 1, compound 1120 g ae/ha + Arylex 5 g ai or ae/ha",100%
same,% Control,Velvetleaf (ABUTH); [14],100%
same,% Control,"Velvetleaf (ABUTH); Trial Bridge 1, compound 1120 g ae/ha + Glyphosate 1120 g ai or ae/ha",100%
same,% Control,Velvetleaf (ABUTH); [15],100%
same,% Control,"Velvetleaf (ABUTH); Trial Bridge 1, compound 1120 g ae/ha + diclosulam 35 g ai or ae/ha",100%
same,% Control,Velvetleaf (ABUTH); [16],100%
same,% Control,Velvetleaf (ABUTH); [17],100%
same,% Control,Velvetleaf (ABUTH); [18],100%
same,% Control,Velvetleaf (ABUTH); [19],100%
same,% Control,Velvetleaf (ABUTH); [20],100%
same,% Control,Velvetleaf (ABUTH); [21],100%
same,% Control,Velvetleaf (ABUTH); [22],100%
same,% Control,[4]; [16],100%
same,% Control,[4]; [17],100%
same,% Control,"[4]; Trial Bridge 2, compound 560 g ae/ha + Trifludimoxazin 12.5 g ai or ae/ha",100%
same,% Control,[4]; [18],100%
same,% Control,[4]; [19],100%
same,% Control,[4]; [20],100%
same,% Control,[4]; [21],100%
same,% Control,[4]; [22],100%
same,% Control,"[4]; Trial Bridge 3, compound 560 g ae/ha + Sulfentrazone 130 g ai/ha",100%
same,% Control,"[4]; Trial Bridge 3, compound 560 g ae/ha + Sulfentrazone 347 g ai/ha",100%
same,% Control,"[4]; Trial Bridge 3, compound 1120 g ae/ha + Sulfentrazone 130 g ai/ha",100%
same,pest or weed control at 560 g/ha,"[4]; Trial Bridge 2, compound 560 g ae/ha, no mixing partner",98%
same,pest or weed control at 1120 g/ha,"[4]; Trial Bridge 2, compound 1120 g ae/ha, no mixing partner",100%
same,pest or weed control at 560 g/ha,"[4]; Trial Bridge 3, compound 560 g ae/ha, no mixing partner",100%
same,pest or weed control at 1120 g/ha,"[4]; Trial Bridge 3, compound 1120 g ae/ha, no mixing partner",100%
same,pest or weed control at 560 g/ha,[4]; [23],95%
same,pest or weed control at 1120 g/ha,[4]; [24],100%
same,% Control,[4]; [12],100%
same,% Control,[4]; [13],100%
same,% Control,[4]; [23],95%
same,% Control,[4]; [14],100%
same,% Control,[4]; [15],100%
same,pest or weed control at 280 g/ha,"[5]; 168 h, 7 DAA",68%
same,pest or weed control at 560 g/ha,"[5]; 168 h, 7 DAA",75%
same,pest or weed control at 280 g/ha,"[5]; 336 h, 14 DAA",96%
same,pest or weed control at 560 g/ha,"[5]; 336 h, 14 DAA",95%
same,pest or weed control at 280 g/ha,"[5]; 504 h, 21 DAA",99%
same,pest or weed control at 560 g/ha,"[5]; 504 h, 21 DAA",99%
same,pest or weed control at 280 g/ha,"[6]; 168 h, 7 DAA",68%
same,pest or weed control at 560 g/ha,"[6]; 168 h, 7 DAA",75%
same,pest or weed control at 280 g/ha,"[6]; 336 h, 14 DAA",85%
same,pest or weed control at 560 g/ha,"[6]; 336 h, 14 DAA",85%
same,pest or weed control at 280 g/ha,"[6]; 504 h, 21 DAA",73%
same,pest or weed control at 560 g/ha,"[6]; 504 h, 21 DAA",83%
same,"TGA Data (rate of weight loss, volatility)",[7],0.04 µg/min
same,% Control,Corn (ZEAMX); [25],5%
same,plant injury at 560 g/ha,"Corn (ZEAMX); Trial Bridge 1, no mixing partner",5%
same,plant injury at 1120 g/ha,Corn (ZEAMX); [24],5%
same,plant injury at 560 g/ha,"Corn (ZEAMX); Trial Bridge 2, mixing partner none",5%
same,plant injury at 560 g/ha,Corn (ZEAMX); [9],10%
same,plant injury at 1120 g/ha,Corn (ZEAMX); [25],5%
same,pest or weed control at 280 g/ha,"[8]; 168 h, 7 DAA",63%
same,pest or weed control at 560 g/ha,"[8]; 168 h, 7 DAA",63%
same,pest or weed control at 280 g/ha,"[8]; 336 h, 14 DAA",65%
same,pest or weed control at 560 g/ha,"[8]; 336 h, 14 DAA",83%
same,pest or weed control at 280 g/ha,"[8]; 504 h, 21 DAA",75%
same,pest or weed control at 560 g/ha,"[8]; 504 h, 21 DAA",97%
